# What was measured:
# K-Ras G12D = molecular target: T1, K-Ras G12D (Homo sapiens, UniProt P01116, G12D); assay: HTRF resonance energy transfer assay, K-Ras G12D / SOS1 interaction; format: biochemical; details: HTRF assay of Example 5; read-out: IC50 against K-Ras G12D
# T1 construct: made in house; host or cells: E. coli BL21 (DE3)
# Summary of the method: (§1)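 GST-tagged K-Ras (WT or mutant) bound to anti-GST-Eu donor was mixed with His-hSOS1 bound to anti-6His-XL665 acceptor in ~5 mM HEPES pH 7.4, 150 mM NaCl, 1 mM DTT, 0.05% BSA, 0.0025% Igepal. HTRF (ex 337, em 620/665 nm) was read after ~10 min or longer. IC50 came from the 665/620 ratio over duplicates from 10 μM to 0.01 μM.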
# K-Ras G12S = molecular target: T2, K-Ras G12S (Homo sapiens, UniProt P01116, G12S); assay: HTRF resonance energy transfer assay, K-Ras G12S / SOS1 interaction; format: biochemical; details: HTRF assay of Example 5; read-out: IC50 against K-Ras G12S
# T2 construct: made in house; host or cells: E. coli BL21 (DE3)
# T2 sequence (P01116 1-188 isoform P01116-2 G12S): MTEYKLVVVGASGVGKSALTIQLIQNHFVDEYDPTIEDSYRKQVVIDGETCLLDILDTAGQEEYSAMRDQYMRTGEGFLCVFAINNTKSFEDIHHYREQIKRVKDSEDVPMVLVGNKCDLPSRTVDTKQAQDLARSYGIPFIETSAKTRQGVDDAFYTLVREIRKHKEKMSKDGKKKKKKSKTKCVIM
# Summary of the method: as §1
# K-Ras G12V = molecular target: T3, K-Ras G12V (Homo sapiens, UniProt P01116, G12V); assay: HTRF resonance energy transfer assay, K-Ras G12V / SOS1 interaction; format: biochemical; details: HTRF assay of Example 5; read-out: IC50 against K-Ras G12V
# T3 construct: made in house; host or cells: E. coli BL21 (DE3)
# T3 sequence (P01116 1-188 isoform P01116-2 G12V): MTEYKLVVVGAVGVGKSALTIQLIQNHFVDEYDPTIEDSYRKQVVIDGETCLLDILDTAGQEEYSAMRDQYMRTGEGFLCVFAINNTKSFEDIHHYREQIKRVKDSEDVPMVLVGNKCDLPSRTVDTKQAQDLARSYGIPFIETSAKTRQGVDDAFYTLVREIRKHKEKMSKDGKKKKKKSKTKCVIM
# Summary of the method: as §1
# K-Ras WT = molecular target: T4, K-Ras WT (Homo sapiens, UniProt P01116); assay: HTRF resonance energy transfer assay, K-Ras WT / SOS1 interaction; format: biochemical; details: HTRF assay of Example 5; read-out: IC50 against K-Ras WT
# T4 construct: made in house; host or cells: E. coli BL21 (DE3)
# T4 sequence (P01116 1-188 isoform P01116-2): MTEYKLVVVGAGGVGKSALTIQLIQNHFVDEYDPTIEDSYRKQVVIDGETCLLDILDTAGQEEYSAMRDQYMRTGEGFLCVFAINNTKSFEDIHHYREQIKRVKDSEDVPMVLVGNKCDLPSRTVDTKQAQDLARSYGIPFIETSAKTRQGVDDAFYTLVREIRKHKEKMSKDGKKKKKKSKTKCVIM
# Summary of the method: as §1
# A549 cells = assay: Ras cellular assay, growth of cells with K-Ras G12S mutation (CellTiter-Glo); format: cell-based; details: Homo sapiens, cell growth, Example 9, G12S mutation, read-out: IC50 against A549 cells
# Summary of the method: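 A549 cells (K-Ras G12S) in RPMI-1640 with 10% heat-inactivated FBS, seeded e.g. 800 per well in standard or ultra-low-attachment 384-well plates, treated next day with a dilution series (e.g. 10-point, 3-fold). Viability by CellTiter-Glo luminescence about 6 days later; IC50 from four-parameter fit.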
# SW620 cells = assay: Ras cellular assay, growth of cells with K-Ras G12V mutation (CellTiter-Glo); format: cell-based; details: Homo sapiens, SW-620; cell growth, Example 9, G12V mutation; read-out: IC50 against SW620 cells
# Summary of the method: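 SW620 (K-Ras G12V) cells, e.g. 800/well in RPMI-1640 with 10% heat-inactivated FBS on standard or ultra-low attachment plates, were dosed the day after plating with e.g. a 10-point 3-fold series. Viability by CellTiter-Glo luminescence about 6 days later; IC50 from four-parameter fit.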
# T1 sequence (P01116 1-188 isoform P01116-2 G12D): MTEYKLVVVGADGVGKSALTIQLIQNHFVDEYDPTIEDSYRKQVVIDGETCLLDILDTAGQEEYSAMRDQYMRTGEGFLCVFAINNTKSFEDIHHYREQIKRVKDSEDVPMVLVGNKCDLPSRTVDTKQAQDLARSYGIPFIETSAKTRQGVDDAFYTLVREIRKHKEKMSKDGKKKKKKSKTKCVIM
Structure (SMILES),IC50 (K-Ras G12D) [nM],IC50 (K-Ras G12S) [nM],IC50 (K-Ras G12V) [nM],IC50 (K-Ras WT) [nM],IC50 (A549 cells) [nM],IC50 (SW620 cells) [nM]
"N#Cc1c(N)sc2c(F)ccc(-c3c(Cl)c4c5c(nc(OC[C@@]67CCCN6C[C@H](F)C7)nc5c3F)N(Cc3cccnc3)CCO4)c12 [Compound 897, 2-amino-4-(8-chloro-10-fluoro-2-(((2R,7aS)-2-fluorotetrahydro-1H-pyrrolizin-7a(5H)-yl)methoxy)-4-(pyridin-3-ylmethyl)-5,6-dihydro-4H-[1,4]oxazepino[5,6,7-de]quinazolin-9-yl)-7-fluorobenzo[b]thiophene-3-carbonitrile]",< 100,< 100,< 100,< 100,< 5000,< 5000
"N#Cc1c(N)sc2c(F)ccc(-c3c(Cl)c4c5c(nc(OCC67CCCN6C[C@H](F)C7)nc5c3F)N(C3CCCOCC3)CCO4)c12 (stereo partly drawn) [Compound 902, 2-amino-4-(8-chloro-10-fluoro-2-(((2R)-2-fluorotetrahydro-1H-pyrrolizin-7a(5H)-yl)methoxy)-4-(oxepan-4-yl)-5,6-dihydro-4H-[1,4]oxazepino[5,6,7-de]quinazolin-9-yl)-7-fluorobenzo[b]thiophene-3-carbonitrile]",< 100,< 100,< 100,< 100,< 5000,< 5000
"Cc1cc(N)nc(-c2c(Cl)c3c4c(nc(OC[C@@]56CCCN5C[C@H](F)C6)nc4c2F)N(CC(F)F)CCO3)c1I [Compound 909, 6-(8-chloro-4-(2,2-difluoroethyl)-10-fluoro-2-(((2R,7aS)-2-fluorotetrahydro-1H-pyrrolizin-7a(5H)-yl)methoxy)-5,6-dihydro-4H-[1,4]oxazepino[5,6,7-de]quinazolin-9-yl)-5-iodo-4-methylpyridin-2-amine]",< 100,< 100,< 100,< 100,< 5000,< 5000
"N#Cc1c(N)sc2c(F)ccc(-c3c(Cl)c4c5c(nc(OC[C@@]67CCCN6C[C@H](F)C7)nc5c3F)N(C3CCC(NC(=O)[C@@H]5N[C@H]5C5CC5)C3)CCO4)c12 (stereo partly drawn) [Compound 920, (2R,3S)—N-(3-(9-(2-amino-3-cyano-7-fluorobenzo[b]thiophen-4-yl)-8-chloro-10-fluoro-2-(((2R,7aS)-2-fluorotetrahydro-1H-pyrrolizin-7a(5H)-yl)methoxy)-5,6-dihydro-4H-[1,4]oxazepino[5,6,7-de]quinazolin-4-yl)cyclopentyl)-3-cyclopropylaziridine-2-carboxamide]",< 100,< 100,< 100,< 100,< 5000,< 5000
"N#Cc1c(N)sc2c(F)ccc(-c3c(Cl)c4c5c(nc(OC[C@@]67CCCN6C[C@H](F)C7)nc5c3F)N(C3CCN(S(=O)(=O)C5CC5)C3)CCO4)c12 (stereo partly drawn) [Compound 922, 2-amino-4-(8-chloro-4-(1-(cyclopropylsulfonyl)pyrrolidin-3-yl)-10-fluoro-2-(((2R,7aS)-2—fluorotetrahydro-1H-pyrrolizin-7a(5H)-yl)methoxy)-5,6-dihydro-4H-[1,4]oxazepino[5,6,7-de]quinazolin-9-yl)-7-fluorobenzo[b]thiophene-3-carbonitrile]",< 100,< 100,< 100,< 100,< 5000,< 5000
"C[C@H](Oc1nc2c3c(c(Cl)c(-c4ccc(F)c5sc(N)c(C#N)c45)c(F)c3n1)OCCN2C1CCOC1)[C@@H]1CCCN1C (stereo partly drawn) [Compound 924, 2-amino-4-(8-chloro-10-fluoro-2-((S)-1-((S)-1-methylpyrrolidin-2-yl)ethoxy)-4-(tetrahydrofuran-3-yl)-5,6-dihydro-4H-[1,4]oxazepino[5,6,7-de]quinazolin-9-yl)-7-fluorobenzo[b]thiophene-3-carbonitrile]",< 100,< 100,< 100,< 100,< 5000,< 5000

# Source: patent US12209102B2, “Heterocyclic compounds and uses thereof” (Kumquat Biosciences Inc., priority 2022, dated 2025)
